We go through one molecule from ChEMBL document CHEMBL4622911, “A cell-based fluorescent assay for FAP inhibitor discovery” (Bioorg Med Chem Lett, 2020).

A word on the inhibition: it is the drop in the measured response relative to a control, in per cent. High values mean a response far below the control, low ones a response near the control.

Assay type in all cases: cell-based
What all share (details): U-87MG ATCC

The target of test [1] is Prolyl endopeptidase FAP (Homo sapiens) (UniProt Q12884). The test is described as follows: Inhibition of FAP in human U87MG cells using Suc-Gly-Pro-AMC as substrate at 1 uM incubated for 90 mins by fluorescence based assay relative to control.
Prolyl endopeptidase FAP (Homo sapiens), sequence (Q12884 whole entry): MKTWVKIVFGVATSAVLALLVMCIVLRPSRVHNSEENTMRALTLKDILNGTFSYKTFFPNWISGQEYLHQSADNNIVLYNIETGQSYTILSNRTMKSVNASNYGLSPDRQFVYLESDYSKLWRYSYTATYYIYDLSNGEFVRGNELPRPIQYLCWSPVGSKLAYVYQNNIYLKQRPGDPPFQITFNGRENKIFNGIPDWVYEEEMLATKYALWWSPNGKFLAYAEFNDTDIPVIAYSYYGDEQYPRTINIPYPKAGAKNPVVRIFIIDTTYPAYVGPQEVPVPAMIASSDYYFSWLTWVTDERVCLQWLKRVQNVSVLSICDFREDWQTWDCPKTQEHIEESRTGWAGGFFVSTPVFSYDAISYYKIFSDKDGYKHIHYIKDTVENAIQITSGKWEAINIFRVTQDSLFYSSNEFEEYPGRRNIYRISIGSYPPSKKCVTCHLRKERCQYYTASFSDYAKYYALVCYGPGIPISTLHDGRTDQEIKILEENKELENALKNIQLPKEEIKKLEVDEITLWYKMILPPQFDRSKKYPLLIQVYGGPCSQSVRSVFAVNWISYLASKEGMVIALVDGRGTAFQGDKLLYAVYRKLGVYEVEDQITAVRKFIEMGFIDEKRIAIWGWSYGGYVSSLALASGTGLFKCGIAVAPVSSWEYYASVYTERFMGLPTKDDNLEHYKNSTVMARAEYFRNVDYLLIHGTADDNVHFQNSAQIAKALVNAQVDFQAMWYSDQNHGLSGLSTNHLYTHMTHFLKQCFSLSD
Test [2] shares this target. The experiment in a line: Inhibition of FAP in human U87MG cells using Z-Gly-Pro-AMC as substrate at 1 uM incubated for 90 mins by fluorescence based assay relative to control.
For test [3] the target is unchanged. The experiment in a line: Inhibition of FAP in human U87MG cells using Gly-Pro-AMC as substrate at 1 uM incubated for 90 mins by fluorescence based assay relative to control.

On to `N#C[C@@H]1CC(F)(F)CN1C(=O)CNC(=O)c1ccnc2ccccc12`, for which the inhibition is 91.9% in test [1], 30.7% in test [2] and 17.5% in test [3].
